Assay results from paper PMC12720098, “Prolintane analogs as hybrid monoamine transporter ligands: Structural determinants and species differences” (The Journal of Biological Chemistry, 2025).
Where two headings read alike, the source gives them in different places.

Experiments:
hSERT [1] = biological target: T1, hSERT (Homo sapiens, UniProt P31645); assay: Uptake inhibition assay ([3H]5-HT) in transfected HEK293 cells; format: cell-based
T1 construct: expressed in transfected cells
Method: HEK293 cells stably expressing human monoamine transporters hSERT, hDAT or hNET were seeded into poly-D-lysine (PDL) coated 96-well plates with a density of approximately 36,000 cells per well 1 day prior to experiments. A day after seeding, the cell medium was replaced with 200 μl Krebs-HEPES-buffer (KHB; 120 mM NaCl, 3 mM KCl, 2 mM CaCl2·2H2O, 2 mM MgCl2·6H2O, 20 mM D-glucose, pH = 7.3). The test drugs were initially dissolved in Milli-Q H2O or dimethyl sulfoxide (DMSO) at a concentration of 10 to 100 mM. Then, cells were treated with the respective concentration of the test drug diluted in KHB for 5 min as a pre-incubation step. Subsequently, in the uptake step, the solution was replaced with 50 μl/well diluted drug solution and tritiated substrate (hDAT: 0.1 μM [^3H]DA; hNET: 0.02 μM [^3H]MPP^+; hSERT: 0.1 μM [^3H]5-HT) for 1 min (hDAT, hSERT) or 3 min (hNET). After incubation, cells were immediately washed with 200 μl KHB to stop uptake. Uptake was indirectly measured by quantifying beta emission with liquid scintillation counting (Wallac 1450 MicroBeta TriLux Liquid Scintillation Counter & Lumi; GMI). Therefore, 200 μl Ultima Gold XR scintillation cocktail (PerkinElmer, MA, USA) was added to each well.
Half-maximal inhibitory concentrations (IC50) were obtained from fitting a sigmoidal dose–response ( Y=Bottom+Top−Bottom/1+10^((LogIC50−X)·HillSlope) ) in GraphPad Prism 10.3.1 (GraphPad Software Inc.). Uptake inhibition data were evaluated by one-way ANOVA followed by Tukey's multiple comparisons test. Release data were analyzed using a two-way ANOVA (batch release) or a mixed-effects model with Geisser-Greenhouse correction (time-dependent traces) employing Šidák correction for comparing differences between compounds with or without the addition of monensin.

hSERT [2] = biological target: T1, hSERT; format: cell-based; details: for Mean of normalized currents elicited through hSERT by drug application: normalized to 10 µM 5-HT current
Method: (§1) One day prior to recording, either native HEK293 cells or HEK293 cells stably expressing monoamine transporters were seeded at low density onto PDL-coated 35 mm dishes. Patch-clamp experiments were conducted at a holding potential of −60 mV, with substrate-induced currents recorded at room temperature (20–24 °C) using an […] amplifier and pClamp 11.2 software (MDS Analytical Technologies). During recordings, cells were continuously superfused via a DAD-12 perfusion system and an 8-tube manifold (ALA Scientific Instruments), delivering an external solution composed of 140 mM NaCl, 2.5 mM CaCl2, 3 mM KCl, 2 mM MgCl2, 20 mM glucose, and 10 mM HEPES, with pH adjusted to 7.3 using NaOH. The intracellular pipette solution, designed to mimic physiological ionic conditions, contained 133 mM potassium gluconate, 5.9 mM NaCl, 1 mM CaCl2, 0.7 mM MgCl2, 10 mM HEPES, and 10 mM EGTA, with pH set to 7.2 using KOH. Currents were filtered at 1 kHz and digitized at 10 kHz via a Digidata 1550 digitizer (MDS Analytical Technologies), followed by analysis in Clampfit 10.2 (Molecular Devices). Substance-induced currents were normalized to the current elicited by a saturating concentration of 5-HT (10 μM) of the same cell. Holding currents were subtracted, and a 50 Hz digital Gaussian low-pass filter was applied to the traces for further analysis.

mice = system: mice; set-up: method as in PMID 34896117; details: moderate and high doses ref 2; cited from earlier work
humans = system: humans; set-up: method as in PMID 4392006, PMID 7437258; details: dose range of 10–30 mg ref 15, 16; cited from earlier work
hSERT [3] = biological target: T1, hSERT; set-up: method as in PMID 30397775; details: cited from earlier work
rSERT = rSERT (Rattus norvegicus, UniProt P31652); format: cell-based; set-up: expressed in transfected cells; details: for Mean diff, rSERT efflux ± Mon (Šídák's multiple comparisons test): drug alone vs drug + monensin (Mon)
rSERT, sequence (P31652 whole entry, the tested form may be a part): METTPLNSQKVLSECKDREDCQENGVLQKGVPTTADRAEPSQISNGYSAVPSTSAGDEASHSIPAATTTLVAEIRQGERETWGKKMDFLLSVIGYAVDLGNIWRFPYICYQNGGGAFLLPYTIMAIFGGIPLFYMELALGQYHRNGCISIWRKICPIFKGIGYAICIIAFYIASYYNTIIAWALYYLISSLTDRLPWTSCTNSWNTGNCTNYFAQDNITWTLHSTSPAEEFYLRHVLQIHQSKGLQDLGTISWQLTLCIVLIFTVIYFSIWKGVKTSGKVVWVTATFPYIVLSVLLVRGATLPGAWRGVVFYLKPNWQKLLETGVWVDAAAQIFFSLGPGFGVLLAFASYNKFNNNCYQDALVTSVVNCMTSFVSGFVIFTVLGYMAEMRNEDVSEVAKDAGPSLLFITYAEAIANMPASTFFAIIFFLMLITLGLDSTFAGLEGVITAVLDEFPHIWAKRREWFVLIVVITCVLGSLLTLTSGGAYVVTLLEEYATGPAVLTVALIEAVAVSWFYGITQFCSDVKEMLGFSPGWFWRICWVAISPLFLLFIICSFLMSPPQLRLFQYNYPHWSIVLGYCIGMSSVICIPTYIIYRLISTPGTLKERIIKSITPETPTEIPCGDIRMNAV
Method: A day prior to the experiment, HEK293 cells stably expressing hSERT or rat SERT (rSERT) were seeded at a density of 100,000 cells per channel into 6 channel flow ibidi slides (Gräfelfing, Germany). On the day of the experiments, cells were preloaded with 0.1 μM [^3H]5-HT at 37 °C, 5% CO2 for 20 min. Subsequently, the slides were transferred to the superfusion apparatus ([59]). Cells were then washed with KHB for 15 min under a constant flow of 0.5 ml/min. Fractions were collected every 2 min in 8 ml vials containing 2 ml scintillation cocktail. Collection began with three baseline fractions using KHB, followed by four additional basal release fractions with KHB, either with or without 10 μM monensin. […] To assess residual radioactivity within the cells, they were lysed with 1% sodium dodecyl sulfate (SDS), and three final fractions were obtained. The measured tritiated substrate in each fraction was expressed as a percentage of the initial tritiated substrate present at the start of that fraction.
Uptake inhibition data were evaluated by one-way ANOVA followed by Tukey's multiple comparisons test. Release data were analyzed using a two-way ANOVA (batch release) or a mixed-effects model with Geisser-Greenhouse correction (time-dependent traces) employing Šidák correction for comparing differences between compounds with or without the addition of monensin.

native HEK293 cells = assay: Whole-cell patch-clamp control in native HEK293 cells without transfection; format: cell-based, human; details: prolintane 30 µM, 5-HT 10 µM (Fig. S3)
Method: as §1

T1 sequence (P31645 whole entry): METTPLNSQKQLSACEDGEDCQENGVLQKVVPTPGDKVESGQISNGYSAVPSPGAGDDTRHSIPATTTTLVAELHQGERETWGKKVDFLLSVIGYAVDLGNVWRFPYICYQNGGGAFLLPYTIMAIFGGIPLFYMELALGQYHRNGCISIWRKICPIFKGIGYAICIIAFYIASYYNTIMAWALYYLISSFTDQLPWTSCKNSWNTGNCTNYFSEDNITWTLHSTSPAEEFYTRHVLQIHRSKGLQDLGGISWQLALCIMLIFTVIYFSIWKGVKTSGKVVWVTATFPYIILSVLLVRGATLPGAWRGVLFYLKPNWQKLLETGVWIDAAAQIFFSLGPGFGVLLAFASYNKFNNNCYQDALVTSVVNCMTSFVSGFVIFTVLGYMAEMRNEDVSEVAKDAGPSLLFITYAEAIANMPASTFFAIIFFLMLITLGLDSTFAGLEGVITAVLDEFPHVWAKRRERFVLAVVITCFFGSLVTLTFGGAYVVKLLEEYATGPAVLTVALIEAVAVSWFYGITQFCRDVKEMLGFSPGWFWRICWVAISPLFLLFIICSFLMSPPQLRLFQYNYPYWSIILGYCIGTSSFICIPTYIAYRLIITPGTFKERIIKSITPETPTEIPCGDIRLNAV

CCCC(Cc1ccccc1F)N1CCCC1 (centres unmarked) [2-Fluoroprolintane, 1-[1-(2-fluorophenyl)pentan-2-yl]pyrrolidine]
IC50 (hSERT [1]): 35.2 ± 9.25 µM
Mean of normalized currents elicited through hSERT by drug application (hSERT [2]): 0.28

CCCC(Cc1ccccc1C)N1CCCC1 (centres unmarked) [2-Methylprolintane, 1-[1-(2-methylphenyl)pentan-2-yl]pyrrolidine]
IC50 (hSERT [1]): 4.25 ± 1.78 µM
Mean of normalized currents elicited through hSERT by drug application (hSERT [2]): 0.386

CCCC(Cc1cccc(F)c1)N1CCCC1 (centres unmarked) [3-Fluoroprolintane, 1-[1-(3-fluorophenyl)pentan-2-yl]pyrrolidine]
IC50 (hSERT [1]): 13.5 ± 1.84 µM
Mean of normalized currents elicited through hSERT by drug application (hSERT [2]): 0.306

CCCC(Cc1cccc(C)c1)N1CCCC1 (centres unmarked) [3-Methylprolintane, 1-[1-(3-methylphenyl)pentan-2-yl]pyrrolidine]
IC50 (hSERT [1]): 2.95 ± 0.541 µM
Mean of normalized currents elicited through hSERT by drug application (hSERT [2]): 0.354

CCCC(Cc1ccc(F)cc1)N1CCCC1 (centres unmarked) [4-Fluoroprolintane, 1-[1-(4-fluorophenyl)pentan-2-yl]pyrrolidine]
IC50 (hSERT [1]): 19.6 ± 2.43 µM
Mean of normalized currents elicited through hSERT by drug application (hSERT [2]): 0.3167

CCCC(Cc1ccc(C)cc1)N1CCCC1 (centres unmarked) [4-Methylprolintane, 1-[1-(4-methylphenyl)pentan-2-yl]pyrrolidine]
IC50 (hSERT [1]): 2.56 ± 0.515 µM
inhibitory potency at hSERT compared to pyrovalerone, fold greater (hSERT [1]; pyrovalerone value ref 53): 10 fold
Mean of normalized currents elicited through hSERT by drug application (hSERT [2]): 0.21

CCCC(Cc1ccccc1)N1CCCC1 (centres unmarked) [Prolintane, 1-(1-phenylpentan-2-yl)pyrrolidine]
abuse-related behavioural effects (mice): rewarding and reinforcing effects
IC50 (hSERT [1]): 28.6 ± 4.01 µM
IC50 at hSERT, fold weaker than at hDAT and hNET (hSERT [1]; HEK293 cells): more than 500 fold
clinical effects (humans): dose-dependent psychostimulant effects, sympathomimetic effects and reduced total rapid eye movement (REM) sleep
effects at hSERT, fold weaker than at hDAT and hNET (hSERT [3]): approximately 10 fold
Mean of normalized currents elicited through hSERT by drug application (hSERT [2]): 0.2567
hSERT-mediated current (hSERT [2]; prolintane 30 µM, after 5-HT washout (Fig. S2)): elicited an inward current
Mean diff, rSERT efflux ± Mon (Šídák's multiple comparisons test) (rSERT; Row 1 (time fraction)): -0.3272
Mean diff, rSERT efflux ± Mon (Šídák's multiple comparisons test) (rSERT; Row 2 (time fraction)): -0.2896
Mean diff, rSERT efflux ± Mon (Šídák's multiple comparisons test) (rSERT; Row 3 (time fraction)): -0.1547
Mean diff, rSERT efflux ± Mon (Šídák's multiple comparisons test) (rSERT; Row 4 (time fraction)): -0.119
Mean diff, rSERT efflux ± Mon (Šídák's multiple comparisons test) (rSERT; Row 5 (time fraction)): -0.6706
Mean diff, rSERT efflux ± Mon (Šídák's multiple comparisons test) (rSERT; Row 6 (time fraction)): -0.9234
Mean diff, rSERT efflux ± Mon (Šídák's multiple comparisons test) (rSERT; Row 7 (time fraction)): -1.427
Mean diff, rSERT efflux ± Mon (Šídák's multiple comparisons test) (rSERT; Row 8 (time fraction)): -2.621
Mean diff, rSERT efflux ± Mon (Šídák's multiple comparisons test) (rSERT; Row 9 (time fraction)): -2.612
Mean diff, rSERT efflux ± Mon (Šídák's multiple comparisons test) (rSERT; Row 10 (time fraction)): -2.362
Mean diff, rSERT efflux ± Mon (Šídák's multiple comparisons test) (rSERT; Row 11 (time fraction)): -2.416
Mean diff, rSERT efflux ± Mon (Šídák's multiple comparisons test) (rSERT; Row 12 (time fraction)): -2.279
[3H]5-HT releasing profile in cells expressing rSERT (rSERT; superfusion, HEK293 cells, with and without monensin): almost identical pseudo-efflux releasing profile
current in native HEK293 cells without transfection (native HEK293 cells): do not induce currents
current in native HEK293 cells without transfection (native HEK293 cells; listed as prolintane): no current could be recorded
